The text below walks through data of publication PMC9897788, “Design, synthesis and cytotoxic evaluation of novel bis-thiazole derivatives as preferential Pim1 kinase inhibitors with in vivo and in silico study” (Journal of Enzyme Inhibition and Medicinal Chemistry, 2023).

Assay in all cases: NCI 60 cell one-dose screening (SRB)
Common to all, as to assay type: cell-based

The subject of one assay is EKVX. To be noted: Homo sapiens, Non-Small Cell Lung Cancer, single dose 10 µM, 48 h, read-out: Percentage of cellular growth inhibition. As to the method: (§1) The 60 cancerous cell panel screening was performed following the Developmental Therapeutics Program (DTP) of the National Cancer Institute (NIH-NCI), USA. A single dose of 10 µM was used to perform the screening at 48 h incubation and the results were achieved as cancerous cell growth percentage relative to the no-drug control that was converted to an inhibition percentage by subtracting from 100.The cancerous cell lines were grown in RPMI 1640 medium containing 5% foetal bovine serum and 2 mM L-glutamine at 37 °C, 5% CO2, 95% air and 100% relative humidity for 24 h prior to addition of the tested compounds. After 24 h, two plates of each cell line were fixed in situ with TCA to represent a measurement of the cell population for each cell line at the time of drug addition (Tz). Compounds were dissolved in DMSO at 400-fold the desired final maximum test concentration and stored frozen prior to use. At the time of drug addition, an aliquot of frozen concentrate was thawed and diluted to twice the desired final maximum test concentration with complete medium containing 50 µg/mL gentamicin. Aliquots of 100 µL of the compounds dilution was added to the appropriate micro titre wells already containing 100 µL of medium, resulting in the required final drug concentrations of 10 µM. Following compounds addition, the plates were incubated for an additional 48 h at 37 °C, 5% CO2, 95% air, and 100% relative humidity. For adherent cells, the assay was terminated by the addition of cold TCA. Cells were fixed in situ by the gentle addition of 50 µL of cold 50% (w/v) TCA (final concentration, 10% TCA) and incubated for 60 min at 4 °C. The supernatant was discarded, and the plates were washed five times with tap water and air dried. Sulphorhodamine B (SRB) solution (100 µL) at 0.4% (w/v) in 1% acetic acid is added to each well, and plates are incubated for 10 min at room temperature. After staining, unbound dye was removed by washing five times with 1% acetic acid and the plates were air dried. Bound stain was subsequently solubilised with 10 mM trizma base, and the absorbance was read on an automated plate reader at a wavelength of 515 nm. For suspension cells, the methodology was the same except that the assay was terminated by fixing settled cells at the bottom of the wells by gently adding 50 µL of 80% TCA (final concentration, 16% TCA). Using the seven absorbance measurements [time zero, (Tz), control growth, I, and test growth in the presence of drug at the five concentration levels (Ti)], the percentage growth was calculated as: [(Ti−Tz)/(C−Tz)]×100 for concentrations for which Ti>/=Tz [(Ti−Tz)/Tz]×100 for concentrations for which Ti<Tz.

In a further assay the test system is COLO 205. To be noted: Homo sapiens; COLO 205, Colon Cancer; single dose 10 µM, 48 h; read-out: Percentage of cellular growth inhibition. As to the method:
as §1

A further assay deals with SF-539. To be noted: Homo sapiens; SF-539, CNS Cancer; single dose 10 µM, 48 h; read-out: Percentage of cellular growth inhibition. As to the method: as §1
The subject of a further assay is RXF 393. Particulars: Homo sapiens; RXF 393, Renal Cancer; single dose 10 µM, 48 h; read-out: Percentage of cellular growth inhibition. As for the experimental part: as §1
The test system of a further assay is HS 578T. To be noted: Homo sapiens, Breast Cancer, single dose 10 µM, 48 h, read-out: Percentage of cellular growth inhibition. As to the method: as §1
The subject of the next assay is SNB-75. Particulars: Homo sapiens; SNB-75, CNS Cancer; single dose 10 µM, 48 h; read-out: Percentage of cellular growth inhibition. As for the experimental part:
as §1

For the next assay, the system named is MOLT-4. To be noted: Homo sapiens; MOLT-4, Leukemia; single dose 10 µM, 48 h; read-out: Percentage of cellular growth inhibition. As to the method:
as §1

The next assay relates to UO-31. To be noted: Homo sapiens; UO-31, Renal Cancer; single dose 10 µM, 48 h; read-out: Percentage of cellular growth inhibition. As for the experimental part: as §1
For the next assay, the system named is HOP-62. To be noted: Homo sapiens; HOP-62, Non-Small Cell Lung Cancer; single dose 10 µM, 48 h; read-out: Percentage of cellular growth inhibition. As to the method: as §1
The subject of another assay is SK-MEL-5. Particulars: Homo sapiens; SK-MEL-5, Melanoma; single dose 10 µM, 48 h; read-out: Percentage of cellular growth inhibition. As to the method:
as §1

The subject of the next assay is HT29. To be noted: Homo sapiens, HT-29; HT29, Colon Cancer; single dose 10 µM, 48 h; read-out: Percentage of cellular growth inhibition. As for the experimental part: as §1
The subject of another assay is KM12. To be noted: Homo sapiens; KM12, Colon Cancer; single dose 10 µM, 48 h; read-out: Percentage of cellular growth inhibition. As for the experimental part: as §1
The test system of a further assay is CCRF-CEM. Particulars: Homo sapiens, Leukemia, single dose 10 µM, 48 h, read-out: Percentage of cellular growth inhibition. As to the method:
as §1

A further assay deals with NCI-H226. To be noted: Homo sapiens; NCI-H226, Non-Small Cell Lung Cancer; single dose 10 µM, 48 h; read-out: Percentage of cellular growth inhibition. As for the experimental part: as §1
The next assay has as its system MDA-MB-468. To be noted: Homo sapiens; MDA-MB-468, Breast Cancer; single dose 10 µM, 48 h; read-out: Percentage of cellular growth inhibition. As to the method:
as §1

Another assay relates to NCI-H322M. Particulars: Homo sapiens, Non-Small Cell Lung Cancer, single dose 10 µM, 48 h, read-out: Percentage of cellular growth inhibition. As to the method: as §1
In a further assay the test system is OVCAR-8. To be noted: Homo sapiens; OVCAR-8, Ovarian Cancer; single dose 10 µM, 48 h; read-out: Percentage of cellular growth inhibition. As to the method: as §1
Another assay concerns 786-0. To be noted: Homo sapiens; 786-0, Renal Cancer; single dose 10 µM, 48 h; read-out: Percentage of cellular growth inhibition. As to the method:
as §1

Another assay deals with RPMI-8226. Particulars: Homo sapiens; RPMI-8226, Leukemia; single dose 10 µM, 48 h; read-out: Percentage of cellular growth inhibition. As to the method:
as §1

For another assay, the system named is SF-268. To be noted: Homo sapiens; SF-268, CNS Cancer; single dose 10 µM, 48 h; read-out: Percentage of cellular growth inhibition. As to the method:
as §1

In the next assay the test system is HL-60(TB). Particulars: Homo sapiens, Leukemia, single dose 10 µM, 48 h, read-out: Percentage of cellular growth inhibition. As for the experimental part: as §1

As for `CCOC(=O)c1sc(Nc2cccc(Nc3nc(C)c(C(=O)OCC)s3)c2)nc1C` [3c, Diethyl 2,2’-(1,3-phenylenebis(azanediyl))bis(4-methylthiazole-5-carboxylate)], the inhibition at 10 µM in the assay with EKVX was found to be 38.6%; with COLO 205, 12.8%; in the assay with SF-539 it was 16.2%; in the assay with RXF 393, 9%; in the assay with HS 578T it was 14.7%; in the assay on SNB-75 it was 2.6%. Moreover, the inhibition at 10 µM was 29.2% with MOLT-4; 32.9% with UO-31; 1.2% with HOP-62; 55.1% in the assay on SK-MEL-5; -4.7% with HT29; 12.2% in the assay on KM12. Moreover, the inhibition at 10 µM in the assay with CCRF-CEM stood at 11%; in the assay on NCI-H226 it was 15%; with MDA-MB-468, 52.4%; in the assay with NCI-H322M, 3.8%; with OVCAR-8, 17.3%; in the assay with 786-0, 5.5%. In addition, the figures for the inhibition at 10 µM with RPMI-8226, with SF-268 and with HL-60(TB) were 37.7%, 14.8% and 22.7%, respectively.

Regarding `Cc1nc(Nc2cccc(Nc3nc(C)c(N=Nc4ccccc4)s3)c2)sc1N=Nc1ccccc1` [5a, N^1,N^3-bis(4-methyl-5-(phenyldiazenyl)thiazol-2-yl)benzene-1,3-diamine], the inhibition at 10 µM in the assay on EKVX was 16.9%; in the assay on COLO 205 it was -4.9%; in the assay with SF-539, 15.4%; with RXF 393 it was -4.4%; in the assay on HS 578T, 19.8%; in the assay on SNB-75 it was 38.4%. Besides, the inhibition at 10 µM with MOLT-4 turned out to be 32.6%; in the assay with UO-31, 69.7%; in the assay with HOP-62 it was 9.3%; in the assay with SK-MEL-5, 8.5%; in the assay with HT29, 2%; in the assay on KM12, 52.1%. The inhibition at 10 µM amounted to 12.3% in the assay with CCRF-CEM; 33% in the assay on NCI-H226; 29.4% in the assay on MDA-MB-468; 22.8% in the assay on NCI-H322M; 33.4% with OVCAR-8; 18.7% in the assay on 786-0. The inhibition at 10 µM is -9.4% in the assay on RPMI-8226, 42.4% in the assay on SF-268 and 5.5% in the assay with HL-60(TB).

As for `c1ccc(/N=c2\scc(-c3ccccc3)n2-c2cccc(-n3c(-c4ccccc4)cs/c3=N\c3ccccc3)c2)cc1` [8a, N,N’-(3,3’-(1,3-phenylene)bis(4-phenylthiazole-3(3H)-yl-2(3H)-ylidene))dianiline], the inhibition at 10 µM with EKVX is 5.3%; with COLO 205, -21.3%; in the assay with SF-539, -7.1%; in the assay with RXF 393, 10.3%; in the assay with HS 578T, 4.2%; with SNB-75, 11.7%. Besides, the inhibition at 10 µM was -5.5% in the assay on MOLT-4; 25.4% in the assay with UO-31; -12.6% in the assay on HOP-62; 4% with SK-MEL-5; -3.1% in the assay with HT29; 1.1% in the assay on KM12. Further, the inhibition at 10 µM in the assay with CCRF-CEM was -0.9%; with NCI-H226 it was 17%; in the assay with MDA-MB-468, 9%; in the assay with NCI-H322M, 1.8%; with OVCAR-8 it was -1.5%; in the assay on 786-0 it was -11.1%. In addition, the inhibition at 10 µM in the assay with RPMI-8226 was -0.5%; in the assay on SF-268, 0.3%; with HL-60(TB), -4.4%.

Take `c1ccc(-c2csc(Nc3cccc(Nc4nc(-c5ccccc5)cs4)c3)n2)cc1` [6a, N^1,N^3-bis(4-phenylthiazol-2-yl)benzene-1,3-diamine]: the inhibition at 10 µM in the assay on EKVX was 62.3%; in the assay on COLO 205, 16.5%; in the assay on SF-539, 42.3%; in the assay with RXF 393 it was 36.2%; with HS 578T it was 43.5%; in the assay with SNB-75 it was 51.4%. For the same molecule, the inhibition at 10 µM was determined as 86.3% in the assay with MOLT-4; 67.7% in the assay with UO-31; 27% with HOP-62; 79% in the assay with SK-MEL-5; 60.6% with HT29; 98.9% with KM12. In addition, the inhibition at 10 µM worked out at 61.4% with CCRF-CEM; 33.8% in the assay with NCI-H226; 60.8% in the assay with MDA-MB-468; 41.9% with NCI-H322M; 60.1% in the assay with OVCAR-8; 49.6% with 786-0. The values for the inhibition at 10 µM in the assay with RPMI-8226, in the assay on SF-268 and in the assay with HL-60(TB) were 50.7%, 59.4% and 34.1%, respectively.

With `Clc1ccc(-c2cs/c(=N\c3ccccc3)n2-c2cccc(-n3c(-c4ccc(Cl)cc4)cs/c3=N\c3ccccc3)c2)cc1` [8c, N,N’-(3,3’-(1,3-phenylene)bis(4–(4-chlorophenyl)thiazole-3(3H)-yl-2(3H)-ylidene))dianiline], the inhibition at 10 µM was 4.9% in the assay with EKVX; 17.2% in the assay with COLO 205; -3% in the assay on SF-539; 8.4% in the assay on RXF 393; 10.4% in the assay with HS 578T; 14.6% with SNB-75. In addition, the inhibition at 10 µM in the assay with MOLT-4 was 12.3%; with UO-31, 17.8%; in the assay with HOP-62, -3.3%; in the assay on SK-MEL-5, 3.1%; in the assay with HT29, 12.4%; with KM12, 8.8%. The inhibition at 10 µM with CCRF-CEM is 32.6%; with NCI-H226, 16.9%; in the assay on MDA-MB-468, 35.4%; in the assay with NCI-H322M, -1.2%; in the assay with OVCAR-8, 7.9%; in the assay with 786-0, -6.9%. Further, the inhibition at 10 µM was found to be 37% with RPMI-8226, 12.1% in the assay on SF-268 and 41.8% with HL-60(TB).

Broadly, the inhibition is the relative decrease from the control value, in per cent.
